Measured values as given in US12377175B2, “Trifunctional constructs with tunable pharmacokinetics useful in imaging and anti-tumor therapies” (Cornell University, priority 2016, dated 2025).
Where “and” joins values, the source holds several entries; their conditions need not be identical. Equal entries are not always repeated.

Tested on: LNCaP xenograft tumor-bearing mice
Assay: Biodistribution of 225Ac-macropa-RPS-070 in LNCaP xenograft mice
Assay type: in vivo, mouse
Conditions: for Organ distribution, Blood, Mean / Organ distribution, Bone, Mean / Organ distribution, Heart, Mean / Organ distribution, Kidneys, Mean / Organ distribution, Large Intestine, Mean / Organ distribution, Liver, Mean / Organ distribution, Lungs, Mean / Organ distribution, Muscle, Mean / Organ distribution, Pancreas, Mean / Organ distribution, Small Intestine, Mean / Organ distribution, Spleen, Mean / Organ distribution, Stomach, Mean / Organ distribution, Tumor, Mean: n = 5
Description: Cell Culture. […] Cell culture supplies were from Invitrogen unless otherwise noted.
Inoculation of Mice with Xenografts. All animal studies were approved by the Institutional Animal Care and Use Committee of Weill Cornell Medicine and were undertaken in accordance with the guidelines set forth by the USPHS Policy on Humane Care and Use of Laboratory Animals. Animals were housed under standard conditions in approved facilities with 12 h light/dark cycles. Food and water was provided ad libitum throughout the course of the studies. Hairless male nu/nu mice were purchased from the Jackson Laboratory. For inoculation in mice, LNCaP cells were suspended at 4×10^7 cells/mL in a 1:1 mixture of PBS:Matrigel (BD Biosciences). Each mouse was injected in the left flank with 0.25 mL of the cell suspension. Biodistributions were conducted when tumors were in the range 100-400 mm^3.
Biodistribution of […] in LNCaP xenograft mice. Fifteen LNCaP xenograft tumor-bearing mice (5 per time point) were injected intravenously with a bolus injection of 85-95 kBq and 100 ng ([…]) of each ligand. The mice were sacrificed by cervical dislocation at 4, 24 and 96 h post injection. A blood sample was removed, and a full biodistribution study was conducted on the following organs (with contents): heart, lungs, liver, small intestine, large intestine, stomach, spleen, pancreas, kidneys, muscle, bone, and tumor. Tissues were weighed and counted on a 2470 Wizard Automatic Gamma Counter (Perkin Elmer). 1% ID/mL samples were counted prior to and following each set of tissue samples to enable decay correction to be undertaken. Counts were corrected for decay and for activity injected, and tissue uptake was expressed as percent injected dose per gram (% ID/g). Standard error measurement was calculated for each data point.

O=C(O)CC[C@H](NC(=O)N[C@@H](CCCCNC(=O)Nc1cccc(-c2cn(CCOCCOCCOCCOCCOCCOCCC(=O)N[C@@H](CCCCNC(=S)Nc3cc(CN4CCOCCOCCN(Cc5cccc(C(=O)[O-])n5)CCOCCOCC4)nc(C(=O)[O-])c3)C(=O)N[C@@H](CCCCNC(=O)Cc3ccc(I)cc3)C(=O)O)nn2)c1)C(=O)O)C(=O)O.[225Ac+3] [225Ac-macropa-RPS-070]
Organ distribution, Blood, individual mice 1-5 (4 h after i.v. injection): 0.9065 % ID/g and 0.5525 % ID/g and 1.118 % ID/g and 0.8276 % ID/g and 0.6564 % ID/g
Organ distribution, Bone, individual mice 1-5 (4 h after i.v. injection): 1.149 % ID/g and 1.123 % ID/g and 1.487 % ID/g and 0.9204 % ID/g and 1.155 % ID/g
Organ distribution, Heart, individual mice 1-5 (4 h after i.v. injection): 0.7576 % ID/g and 0.6532 % ID/g and 0.774 % ID/g and 0.7515 % ID/g and 0.6565 % ID/g
Organ distribution, Kidneys, individual mice 1-5 (4 h after i.v. injection): 65.5884 % ID/g and 20.5274 % ID/g and 108.233 % ID/g and 33.654 % ID/g and 33.0707 % ID/g
Organ distribution, Large Intestine, individual mice 1-5 (4 h after i.v. injection): 1.363 % ID/g and 0.6516 % ID/g and 1.274 % ID/g and 0.9166 % ID/g and 0.819 % ID/g
Organ distribution, Liver, individual mice 1-5 (4 h after i.v. injection): 1.622 % ID/g and 1.346 % ID/g and 1.742 % ID/g and 1.681 % ID/g and 1.3957 % ID/g
Organ distribution, Lungs, individual mice 1-5 (4 h after i.v. injection): 0.9956 % ID/g and 0.6067 % ID/g and 1.2979 % ID/g and 0.9859 % ID/g and 0.8866 % ID/g
Organ distribution, Muscle, individual mice 1-5 (4 h after i.v. injection): 0.6801 % ID/g and 0.8058 % ID/g and 0.7282 % ID/g and 0.6767 % ID/g and 0.6562 % ID/g
Organ distribution, Pancreas, individual mice 1-5 (4 h after i.v. injection): 0.5549 % ID/g and 0.4164 % ID/g and 0.5532 % ID/g and 0.4675 % ID/g and 0.6604 % ID/g
Organ distribution, Small Intestine, individual mice 1-5 (4 h after i.v. injection): 0.1998 % ID/g and 0.1628 % ID/g and 0.3104 % ID/g and 0.2441 % ID/g and 0.1709 % ID/g
Organ distribution, Spleen, individual mice 1-5 (4 h after i.v. injection): 1.409 % ID/g and 0.708 % ID/g and 1.613 % ID/g and 1.108 % ID/g and 0.8756 % ID/g
Organ distribution, Stomach, individual mice 1-5 (4 h after i.v. injection): 0.3396 % ID/g and 0.2471 % ID/g and 0.3042 % ID/g and 0.4109 % ID/g and 0.2122 % ID/g
Organ distribution, Tumor, individual mice 1-5 (4 h after i.v. injection): 6.732 % ID/g and 10.7309 % ID/g and 23.8367 % ID/g and 15.3682 % ID/g and 7.504 % ID/g
Organ distribution, Blood, Mean (4 h after i.v. injection): 0.8122 % ID/g
Organ distribution, Bone, Mean (4 h after i.v. injection): 1.167 % ID/g
Organ distribution, Heart, Mean (4 h after i.v. injection): 0.7189 % ID/g
Organ distribution, Kidneys, Mean (4 h after i.v. injection): 52±16 % ID/g and 52.2146 % ID/g
Organ distribution, Large Intestine, Mean (4 h after i.v. injection): 1.005 % ID/g
Organ distribution, Liver, Mean (4 h after i.v. injection): 1.557 % ID/g
Organ distribution, Lungs, Mean (4 h after i.v. injection): 0.9469 % ID/g
Organ distribution, Muscle, Mean (4 h after i.v. injection): 0.7094 % ID/g
Organ distribution, Pancreas, Mean (4 h after i.v. injection): 0.5305 % ID/g
Organ distribution, Small Intestine, Mean (4 h after i.v. injection): 0.2176 % ID/g
Organ distribution, Spleen, Mean (4 h after i.v. injection): 1.143 % ID/g
Organ distribution, Stomach, Mean (4 h after i.v. injection): 0.3028 % ID/g
Organ distribution, Tumor, Mean (4 h after i.v. injection): 13±3 % ID/g and 12.8342 % ID/g
Organ distribution, Blood, individual mice 1-5 (24 h after i.v. injection): 0.3483 % ID/g and 0.3132 % ID/g and 0.2208 % ID/g and 0.2945 % ID/g and 0.277 % ID/g
Organ distribution, Bone, individual mice 1-5 (24 h after i.v. injection): 1.273 % ID/g and 1.066 % ID/g and 0.8394 % ID/g and 1.006 % ID/g and 0.6976 % ID/g
Organ distribution, Heart, individual mice 1-5 (24 h after i.v. injection): 0.5226 % ID/g and 0.5633 % ID/g and 0.4521 % ID/g and 0.4791 % ID/g and 0.4648 % ID/g
Organ distribution, Kidneys, individual mice 1-5 (24 h after i.v. injection): 4.988 % ID/g and 4.257 % ID/g and 3.946 % ID/g and 3.665 % ID/g and 4.103 % ID/g
Organ distribution, Large Intestine, individual mice 1-5 (24 h after i.v. injection): 0.133 % ID/g and 0.1259 % ID/g and 0.1325 % ID/g and 0.1343 % ID/g and 0.1318 % ID/g
Organ distribution, Liver, individual mice 1-5 (24 h after i.v. injection): 1.578 % ID/g and 1.476 % ID/g and 1.138 % ID/g and 1.143 % ID/g and 1.485 % ID/g
Organ distribution, Lungs, individual mice 1-5 (24 h after i.v. injection): 0.5378 % ID/g and 0.4508 % ID/g and 0.4608 % ID/g and 0.4286 % ID/g and 0.4483 % ID/g
Organ distribution, Muscle, individual mice 1-5 (24 h after i.v. injection): 0.6119 % ID/g and 0.5149 % ID/g and 0.4483 % ID/g and 0.7803 % ID/g and 0.4458 % ID/g
Organ distribution, Pancreas, individual mice 1-5 (24 h after i.v. injection): 0.3985 % ID/g and 0.3912 % ID/g and 0.5035 % ID/g and 0.3332 % ID/g and 0.3194 % ID/g
Organ distribution, Small Intestine, individual mice 1-5 (24 h after i.v. injection): 0.08784 % ID/g and 0.09914 % ID/g and 0.08822 % ID/g and 0.09466 % ID/g and 0.1037 % ID/g
Organ distribution, Spleen, individual mice 1-5 (24 h after i.v. injection): 0.6208 % ID/g and 0.6576 % ID/g and 0.6201 % ID/g and 0.5768 % ID/g and 0.5855 % ID/g
Organ distribution, Stomach, individual mice 1-5 (24 h after i.v. injection): 0.1296 % ID/g and 0.1212 % ID/g and 0.1119 % ID/g and 0.1467 % ID/g and 0.1533 % ID/g
Organ distribution, Tumor, individual mice 1-5 (24 h after i.v. injection): 11.6163 % ID/g and 9.269 % ID/g and 7.502 % ID/g and 4.414 % ID/g and 8.047 % ID/g
Organ distribution, Blood, Mean (24 h after i.v. injection): 0.2908 % ID/g
Organ distribution, Bone, Mean (24 h after i.v. injection): 0.9764 % ID/g
Organ distribution, Heart, Mean (24 h after i.v. injection): 0.4964 % ID/g
Organ distribution, Kidneys, Mean (24 h after i.v. injection): 4.192 % ID/g
Organ distribution, Large Intestine, Mean (24 h after i.v. injection): 0.1315 % ID/g
Organ distribution, Liver, Mean (24 h after i.v. injection): 1.364 % ID/g
Organ distribution, Lungs, Mean (24 h after i.v. injection): 0.4653 % ID/g
Organ distribution, Muscle, Mean (24 h after i.v. injection): 0.5603 % ID/g
Organ distribution, Pancreas, Mean (24 h after i.v. injection): 0.3891 % ID/g
Organ distribution, Small Intestine, Mean (24 h after i.v. injection): 0.09473 % ID/g
Organ distribution, Spleen, Mean (24 h after i.v. injection): 0.6122 % ID/g
Organ distribution, Stomach, Mean (24 h after i.v. injection): 0.1326 % ID/g
Organ distribution, Tumor, Mean (24 h after i.v. injection): 8.17 % ID/g
Organ distribution, Blood, individual mice 1-5 (96 h after i.v. injection): 0.1904 % ID/g and 0.1919 % ID/g and 0.1521 % ID/g and 0.1653 % ID/g and 0.2382 % ID/g
Organ distribution, Bone, individual mice 1-5 (96 h after i.v. injection): 0.8639 % ID/g and 0.8687 % ID/g and 0.8383 % ID/g and 1.122 % ID/g and 0.8204 % ID/g
Organ distribution, Heart, individual mice 1-5 (96 h after i.v. injection): 0.3994 % ID/g and 0.424 % ID/g and 0.4286 % ID/g and 0.4459 % ID/g and 0.456 % ID/g
Organ distribution, Kidneys, individual mice 1-5 (96 h after i.v. injection): 1.303 % ID/g and 1.3239 % ID/g and 2.004 % ID/g and 1.399 % ID/g and 1.46 % ID/g
Organ distribution, Large Intestine, individual mice 1-5 (96 h after i.v. injection): 0.04349 % ID/g and 0.09663 % ID/g and 0.04522 % ID/g and 0.04198 % ID/g and 0.03927 % ID/g
Organ distribution, Liver, individual mice 1-5 (96 h after i.v. injection): 0.7941 % ID/g and 0.8144 % ID/g and 0.733 % ID/g and 0.7917 % ID/g and 0.7942 % ID/g
Organ distribution, Lungs, individual mice 1-5 (96 h after i.v. injection): 0.3016 % ID/g and 0.5091 % ID/g and 0.4694 % ID/g and 0.3781 % ID/g and 0.3698 % ID/g
Organ distribution, Muscle, individual mice 1-5 (96 h after i.v. injection): 0.3022 % ID/g and 0.5249 % ID/g and 0.2509 % ID/g and 0.2982 % ID/g and 0.2528 % ID/g
Organ distribution, Pancreas, individual mice 1-5 (96 h after i.v. injection): 0.09848 % ID/g and 0.377 % ID/g and 0.3055 % ID/g and 0.3162 % ID/g and 0.3335 % ID/g
Organ distribution, Small Intestine, individual mice 1-5 (96 h after i.v. injection): 0.04372 % ID/g and 0.0577 % ID/g and 0.03752 % ID/g and 0.04431 % ID/g and 0.04136 % ID/g
Organ distribution, Spleen, individual mice 1-5 (96 h after i.v. injection): 0.4837 % ID/g and 0.394 % ID/g and 0.4426 % ID/g and 0.4348 % ID/g and 0.5397 % ID/g
Organ distribution, Stomach, individual mice 1-5 (96 h after i.v. injection): 0.03442 % ID/g and 0.04708 % ID/g and 0.03448 % ID/g and 0.02845 % ID/g and 0.02366 % ID/g
Organ distribution, Tumor, individual mice 1-5 (96 h after i.v. injection): 4.043 % ID/g and 4.078 % ID/g and 6.74 % ID/g and 4.581 % ID/g and 4.845 % ID/g
Organ distribution, Blood, Mean (96 h after i.v. injection): 0.1876 % ID/g
Organ distribution, Bone, Mean (96 h after i.v. injection): 0.9027 % ID/g
Organ distribution, Heart, Mean (96 h after i.v. injection): 0.4333 % ID/g
Organ distribution, Kidneys, Mean (96 h after i.v. injection): 1.4978 % ID/g
Organ distribution, Large Intestine, Mean (96 h after i.v. injection): 0.05332 % ID/g
Organ distribution, Liver, Mean (96 h after i.v. injection): 0.7855 % ID/g
Organ distribution, Lungs, Mean (96 h after i.v. injection): 0.4056 % ID/g
Organ distribution, Muscle, Mean (96 h after i.v. injection): 0.3258 % ID/g
Organ distribution, Pancreas, Mean (96 h after i.v. injection): 0.2861 % ID/g
Organ distribution, Small Intestine, Mean (96 h after i.v. injection): 0.04492 % ID/g
Organ distribution, Spleen, Mean (96 h after i.v. injection): 0.459 % ID/g
Organ distribution, Stomach, Mean (96 h after i.v. injection): 0.03362 % ID/g
Organ distribution, Tumor, Mean (96 h after i.v. injection): 4.857 % ID/g
uptake by other organs (other than kidneys and tumor) (96 h post injection): < 1 % ID/g
